Measured values as given in ChEMBL document CHEMBL5252615, “Synthesis, biological activity and mechanism of action of novel allosecurinine derivatives as potential antitumor agents” (Bioorg Med Chem, 2023).
pIC50: −log10 of the molar value. Activity calls are given as the source filed them. No cut-off for these calls is given here.

Key:
NB-4 [1] = assay: Induction of apoptosis in human NB4 cells assessed as early apoptotic cells at 2.5 uM after 48 hrs by Annexin-V-FITC/PI staining based flow cytometric analysis (reference value: 0.86%); format: functional
NB-4 [2] = assay: Induction of apoptosis in human NB4 cells assessed as viable cells at 2.5 uM after 48 hrs by Annexin-V-FITC/PI staining based flow cytometric analysis (reference value: 97.96%); format: functional; conditions: read-out: Activity
THP-1 [3] = assay: Induction of apoptosis in human THP-1 cells assessed as decrease in expression level of Bcl-2 measured after 48 hrs by Western blotting analysis; format: functional, cell-based; conditions: dose 1-5 µM
NB-4 [4] = assay: Antitumor activity against human NB4 cells assessed as reduction in cell viability incubated for 72 hrs; format: functional, cell-based; conditions: NB-4, 72 h
THP-1 [5] = assay: Antitumor activity against human THP-1 cells assessed as reduction in cell viability incubated for 72 hrs; format: functional, cell-based; conditions: THP-1, 72 h
KG-1 [6] = assay: Antitumor activity against human KG-1 cells assessed as reduction in cell viability incubated for 72 hrs; format: functional, cell-based; conditions: KG-1, 72 h
U-937 [7] = assay: Antitumor activity against human U-937 cells assessed as reduction in cell viability incubated for 72 hrs; format: functional, cell-based; conditions: U-937, 72 h
SK-OV-3 = assay: Antitumor activity against taxol-resistant human SK-OV-3 cells assessed as reduction in cell viability incubated for 72 hrs; format: functional, cell-based; conditions: SK-OV-3, 72 h
U-937 [8] = assay: Induction of differentiation of human U-937 cells assessed as increase in CD11b expression at 0.5 uM measured after 72 hrs by flow cytometric analysis; format: functional, cell-based
NB-4 [9] = assay: Induction of apoptosis in human NB4 cells assessed as necrotic cells at 2.5 uM after 48 hrs by Annexin-V-FITC/PI staining based flow cytometric analysis (reference value: 0.29%); format: functional
HL-60 [10] = assay: Induction of apoptosis in human HL-60 cells assessed as early apoptotic cells at 2.5 uM after 48 hrs by Annexin-V-FITC/PI staining based flow cytometric analysis (reference value: 0.68%); format: functional
HL-60 [11] = assay: Induction of apoptosis in human HL-60 cells assessed as late apoptotic cells at 2.5 uM after 48 hrs by Annexin-V-FITC/PI staining based flow cytometric analysis (reference value: 0.44%); format: functional
HL-60 [12] = assay: Induction of apoptosis in human HL-60 cells assessed as necrotic cells at 2.5 uM after 48 hrs by Annexin-V-FITC/PI staining based flow cytometric analysis (reference value: 2.83%); format: functional
KG-1 [13] = assay: Induction of apoptosis in human KG-1 cells assessed as early apoptotic cells at 2.5 uM after 48 hrs by Annexin-V-FITC/PI staining based flow cytometric analysis (reference value: 0.70%); format: functional
KG-1 [14] = assay: Induction of apoptosis in human KG-1 cells assessed as late apoptotic cells at 2.5 uM after 48 hrs by Annexin-V-FITC/PI staining based flow cytometric analysis (reference value: 0.16%); format: functional
U-937 [15] = assay: Induction of apoptosis in human U-937 cells assessed as viable cells at 2.5 uM after 48 hrs by Annexin-V-FITC/PI staining based flow cytometric analysis (reference value: 94.78%); format: functional; conditions: read-out: Activity
U-937 [16] = assay: Induction of apoptosis in human U-937 cells assessed as early apoptotic cells at 2.5 uM after 48 hrs by Annexin-V-FITC/PI staining based flow cytometric analysis (reference value: 2.87%); format: functional
U-937 [17] = assay: Induction of apoptosis in human U-937 cells assessed as late apoptotic cells at 2.5 uM after 48 hrs by Annexin-V-FITC/PI staining based flow cytometric analysis (reference value: 0.94%); format: functional
U-937 [18] = assay: Induction of apoptosis in human U-937 cells assessed as necrotic cells at 2.5 uM after 48 hrs by Annexin-V-FITC/PI staining based flow cytometric analysis (reference value: 1.41%); format: functional
K562 [19] = assay: Induction of apoptosis in human K562 cells assessed as necrotic cells at 2.5 uM after 48 hrs by Annexin-V-FITC/PI staining based flow cytometric analysis (reference value: 1.19%); format: functional
THP-1 [20] = assay: Induction of apoptosis in human THP-1 cells assessed as viable cells at 2.5 uM after 48 hrs by Annexin-V-FITC/PI staining based flow cytometric analysis (reference value: 93.94%); format: functional; conditions: read-out: Activity
THP-1 [21] = assay: Induction of apoptosis in human THP-1 cells assessed as early apoptotic cells at 2.5 uM after 48 hrs by Annexin-V-FITC/PI staining based flow cytometric analysis (reference value: 4.61%); format: functional
THP-1 [22] = assay: Induction of apoptosis in human THP-1 cells assessed as late apoptotic cells at 2.5 uM after 48 hrs by Annexin-V-FITC/PI staining based flow cytometric analysis (reference value: 1.26%); format: functional
NB-4 [23] = assay: Induction of apoptosis in human NB4 cells assessed as accumulation of cells at sub-G1 phase at 2.5 uM after 48 hrs by PI staining based flow cytometric analysis; format: functional, cell-based
KG-1 [24] = assay: Induction of apoptosis in human KG-1 cells assessed as accumulation of cells at sub-G1 phase at 2.5 uM after 48 hrs by PI staining based flow cytometric analysis; format: functional, cell-based
U-937 [25] = assay: Induction of apoptosis in human U-937 cells assessed as accumulation of cells at sub-G1 phase at 2.5 uM after 48 hrs by PI staining based flow cytometric analysis; format: functional, cell-based
THP-1 [26] = assay: Induction of apoptosis in human THP-1 cells assessed as change in mitochondrial membrane potential after 48 hrs by JC-1 staining based flow cytometric analysis; format: functional, cell-based
U-937 [27] = assay: Induction of reactive oxygen species production in human U-937 cells at 1 to 5 uM measured after 48 hrs by DCFH-DA staining based flow cytometric analysis; format: functional, cell-based; conditions: dose 1-5 µM
KG-1 [28] = assay: Induction of reactive oxygen species production in human KG-1 cells at 1 to 5 uM measured after 48 hrs by DCFH-DA staining based flow cytometric analysis; format: functional, cell-based; conditions: dose 1-5 µM
THP-1 [29] = assay: Induction of reactive oxygen species production in human THP-1 cells at 1 to 5 uM measured after 48 hrs by DCFH-DA staining based flow cytometric analysis; format: functional, cell-based; conditions: dose 1-5 µM
U-937 [30] = assay: Induction of reactive oxygen species production in human U-937 cells at 1 to 5 uM measured after 48 hrs by DCF fluorescence analysis; format: functional, cell-based; conditions: dose 1-5 µM
THP-1 [31] = assay: Induction of reactive oxygen species production in human THP-1 cells at 1 to 5 uM measured after 48 hrs by DCF fluorescence analysis; format: functional, cell-based; conditions: dose 1-5 µM
K562 [32] = assay: Induction of apoptosis in human K562 cells assessed as decrease in expression level of XIAP measured at 1 to 5 uM after 48 hrs by Western blotting analysis; format: functional, cell-based; conditions: dose 1-5 µM
NB-4 [33] = assay: Induction of apoptosis in human NB4 cells assessed as decrease in expression level of YAP1 measured at 1 to 5 uM after 48 hrs by Western blotting analysis; format: functional, cell-based; conditions: dose 1-5 µM
KG-1 [34] = assay: Induction of apoptosis in human KG-1 cells assessed as decrease in expression level of caspase 3/9 measured at 1 to 5 uM after 48 hrs by Western blotting analysis; format: functional, cell-based; conditions: dose 1-5 µM
K562 [35] = assay: Induction of apoptosis in human K562 cells assessed as decrease in expression level of caspase 3/9 measured at 1 to 5 uM after 48 hrs by Western blotting analysis; format: functional, cell-based; conditions: dose 1-5 µM
U-937 [36] = assay: Induction of apoptosis in human U-937 cells assessed as decrease in expression level of PARP measured at 1 to 5 uM after 48 hrs by Western blotting analysis; format: functional, cell-based; conditions: dose 1-5 µM

## O=C1O[C@@]23C[C@@H](C=CC2=C1C(O)c1ccc([N+](=O)[O-])cc1)N1CCCC[C@H]13 (some centres not stated)
NB-4 [1]
  Activity: 23.15%
NB-4 [2]
  viability at 2.5 µM: 22.9%
THP-1 [3]
  Activity: Dose-Dependent Effect
NB-4 [4]
  pIC50: 5.73
THP-1 [5]
  pIC50: 5.55
KG-1 [6]
  pIC50: 5.97
U-937 [7]
  pIC50: 5.82
SK-OV-3
  pIC50: 5.43
U-937 [8]
  Activity: Active
NB-4 [9]
  Activity: 3.4%
HL-60 [10]
  Activity: 18.2%
HL-60 [11]
  Activity: 6.43%
HL-60 [12]
  Activity: 2.42%
KG-1 [13]
  Activity: 0.33%
KG-1 [14]
  Activity: 46.7%
U-937 [15]
  viability at 2.5 µM: 41.3%
U-937 [16]
  Activity: 13.42%
U-937 [17]
  Activity: 15.33%
U-937 [18]
  Activity: 29.96%
K562 [19]
  Activity: 6.62%
THP-1 [20]
  viability at 2.5 µM: 69.7%
THP-1 [21]
  Activity: 16.82%
THP-1 [22]
  Activity: 11.77%
NB-4 [23]
  Activity: Active
KG-1 [24]
  Activity: Active
U-937 [25]
  Activity: Active
THP-1 [26]
  Activity: Active
U-937 [27]
  Activity: Active
KG-1 [28]
  Activity: Active
THP-1 [29]
  Activity: Active
U-937 [30]
  Activity: Active
THP-1 [31]
  Activity: Active
K562 [32]
  Activity: Active
NB-4 [33]
  Activity: Active
KG-1 [34]
  Activity: Active
K562 [35]
  Activity: Active
U-937 [36]
  Activity: Active
